# Results published in ChEMBL document CHEMBL3392969, “SAR156497, an exquisitely selective inhibitor of aurora kinases” (J Med Chem, 2015).
# Columns and labels:
# Focal adhesion kinase 1 = Focal adhesion kinase 1 (Homo sapiens, UniProt Q05397)
# Description: Inhibition of FAK (unknown origin)
# Angiopoietin-1 receptor = Angiopoietin-1 receptor (Homo sapiens, UniProt Q02763)
# Description: Inhibition of TIE-2 (unknown origin)
# [1] = biological target: Insulin-like growth factor 1 receptor (Homo sapiens, UniProt P08069)
# Description: Inhibition of IGF1R (unknown origin)
# MAP kinase p38 = MAP kinase p38 (Homo sapiens, UniProt O15264+Q15759+Q16539+P53778)
# Description: Inhibition of p-38 kinase (unknown origin)
# HeLa = test: cells; settings: Homo sapiens
# Description: Antiproliferative activity against human HeLa cells assessed as 14C-thymidine incorporation by Micro-Beta radioactivity counting analysis
# Focal adhesion kinase 1, sequence (Q05397 whole entry): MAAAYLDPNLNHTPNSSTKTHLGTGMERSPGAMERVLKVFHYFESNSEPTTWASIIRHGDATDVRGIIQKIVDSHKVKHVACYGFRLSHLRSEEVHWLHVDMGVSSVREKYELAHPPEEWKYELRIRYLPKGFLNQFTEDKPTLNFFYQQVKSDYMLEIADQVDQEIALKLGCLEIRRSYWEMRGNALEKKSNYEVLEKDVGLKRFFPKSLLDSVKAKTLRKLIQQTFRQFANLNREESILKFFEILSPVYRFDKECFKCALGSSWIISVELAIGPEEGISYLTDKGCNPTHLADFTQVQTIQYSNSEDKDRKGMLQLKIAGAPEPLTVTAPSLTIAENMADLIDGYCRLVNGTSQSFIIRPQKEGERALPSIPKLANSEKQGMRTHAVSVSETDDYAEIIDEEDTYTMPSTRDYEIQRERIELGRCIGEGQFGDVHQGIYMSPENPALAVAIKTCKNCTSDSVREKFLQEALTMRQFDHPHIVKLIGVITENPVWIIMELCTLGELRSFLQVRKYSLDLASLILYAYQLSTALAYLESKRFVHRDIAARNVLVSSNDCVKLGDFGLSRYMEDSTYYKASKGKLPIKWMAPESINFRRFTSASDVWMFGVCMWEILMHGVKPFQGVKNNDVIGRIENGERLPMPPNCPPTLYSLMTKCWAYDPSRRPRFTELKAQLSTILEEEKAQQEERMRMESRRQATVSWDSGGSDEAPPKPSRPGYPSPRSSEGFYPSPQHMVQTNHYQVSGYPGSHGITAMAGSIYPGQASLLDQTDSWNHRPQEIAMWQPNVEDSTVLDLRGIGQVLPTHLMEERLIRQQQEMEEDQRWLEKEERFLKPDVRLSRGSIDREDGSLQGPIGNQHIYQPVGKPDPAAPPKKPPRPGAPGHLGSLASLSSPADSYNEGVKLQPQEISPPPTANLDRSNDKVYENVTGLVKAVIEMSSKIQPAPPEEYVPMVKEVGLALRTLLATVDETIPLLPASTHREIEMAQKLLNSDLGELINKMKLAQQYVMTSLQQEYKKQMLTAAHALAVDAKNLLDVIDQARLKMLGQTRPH
# Angiopoietin-1 receptor, sequence (Q02763 whole entry): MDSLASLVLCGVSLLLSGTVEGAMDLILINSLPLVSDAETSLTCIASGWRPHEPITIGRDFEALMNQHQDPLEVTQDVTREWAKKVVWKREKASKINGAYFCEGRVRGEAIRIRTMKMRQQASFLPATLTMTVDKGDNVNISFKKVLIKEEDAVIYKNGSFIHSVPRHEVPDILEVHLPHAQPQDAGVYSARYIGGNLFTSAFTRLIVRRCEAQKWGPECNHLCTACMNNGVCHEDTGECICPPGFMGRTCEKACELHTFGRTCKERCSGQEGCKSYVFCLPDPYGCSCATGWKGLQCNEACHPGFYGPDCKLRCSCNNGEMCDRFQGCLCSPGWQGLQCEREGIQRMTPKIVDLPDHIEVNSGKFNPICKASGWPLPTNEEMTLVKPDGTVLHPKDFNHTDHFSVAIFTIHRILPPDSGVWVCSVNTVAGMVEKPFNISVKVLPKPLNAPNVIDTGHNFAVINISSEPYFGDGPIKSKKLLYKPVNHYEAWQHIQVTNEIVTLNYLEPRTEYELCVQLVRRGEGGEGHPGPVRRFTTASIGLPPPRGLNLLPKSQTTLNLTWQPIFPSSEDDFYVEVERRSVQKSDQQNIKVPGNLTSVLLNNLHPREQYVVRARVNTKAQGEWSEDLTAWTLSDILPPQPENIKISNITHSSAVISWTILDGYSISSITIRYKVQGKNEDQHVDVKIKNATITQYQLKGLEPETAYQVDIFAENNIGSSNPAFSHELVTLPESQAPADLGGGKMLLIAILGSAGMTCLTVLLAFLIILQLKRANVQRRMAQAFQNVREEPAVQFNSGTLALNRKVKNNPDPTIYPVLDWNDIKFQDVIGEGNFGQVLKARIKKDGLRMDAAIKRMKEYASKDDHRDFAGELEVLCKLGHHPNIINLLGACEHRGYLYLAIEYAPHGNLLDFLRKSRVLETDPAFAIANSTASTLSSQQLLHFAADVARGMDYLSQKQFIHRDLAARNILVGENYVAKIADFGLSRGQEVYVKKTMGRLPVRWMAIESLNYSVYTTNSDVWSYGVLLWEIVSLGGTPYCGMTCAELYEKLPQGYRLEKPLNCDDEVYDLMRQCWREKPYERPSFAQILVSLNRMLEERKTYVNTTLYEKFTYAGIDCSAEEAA
# Insulin-like growth factor 1 receptor, sequence (P08069 31-736 limits assumed): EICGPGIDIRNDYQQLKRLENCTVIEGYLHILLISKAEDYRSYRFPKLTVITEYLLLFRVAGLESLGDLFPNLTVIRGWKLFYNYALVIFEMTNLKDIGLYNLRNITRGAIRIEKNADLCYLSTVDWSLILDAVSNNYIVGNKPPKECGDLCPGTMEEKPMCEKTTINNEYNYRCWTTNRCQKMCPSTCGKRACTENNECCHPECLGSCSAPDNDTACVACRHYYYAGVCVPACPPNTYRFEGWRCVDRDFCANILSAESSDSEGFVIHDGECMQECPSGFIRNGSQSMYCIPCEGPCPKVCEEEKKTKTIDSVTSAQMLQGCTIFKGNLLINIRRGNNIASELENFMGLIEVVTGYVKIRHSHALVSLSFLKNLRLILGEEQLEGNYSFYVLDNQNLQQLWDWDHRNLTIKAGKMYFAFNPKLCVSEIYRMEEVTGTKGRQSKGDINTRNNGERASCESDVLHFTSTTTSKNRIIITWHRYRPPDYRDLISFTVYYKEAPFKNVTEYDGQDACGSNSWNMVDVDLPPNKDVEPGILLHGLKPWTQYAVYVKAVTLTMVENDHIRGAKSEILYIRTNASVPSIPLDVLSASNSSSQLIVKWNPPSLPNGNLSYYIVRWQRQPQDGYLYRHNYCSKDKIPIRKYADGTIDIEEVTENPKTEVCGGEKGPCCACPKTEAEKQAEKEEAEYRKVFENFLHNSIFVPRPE
# Insulin-like growth factor 1 receptor, sequence (P08069 741-1367 limits assumed): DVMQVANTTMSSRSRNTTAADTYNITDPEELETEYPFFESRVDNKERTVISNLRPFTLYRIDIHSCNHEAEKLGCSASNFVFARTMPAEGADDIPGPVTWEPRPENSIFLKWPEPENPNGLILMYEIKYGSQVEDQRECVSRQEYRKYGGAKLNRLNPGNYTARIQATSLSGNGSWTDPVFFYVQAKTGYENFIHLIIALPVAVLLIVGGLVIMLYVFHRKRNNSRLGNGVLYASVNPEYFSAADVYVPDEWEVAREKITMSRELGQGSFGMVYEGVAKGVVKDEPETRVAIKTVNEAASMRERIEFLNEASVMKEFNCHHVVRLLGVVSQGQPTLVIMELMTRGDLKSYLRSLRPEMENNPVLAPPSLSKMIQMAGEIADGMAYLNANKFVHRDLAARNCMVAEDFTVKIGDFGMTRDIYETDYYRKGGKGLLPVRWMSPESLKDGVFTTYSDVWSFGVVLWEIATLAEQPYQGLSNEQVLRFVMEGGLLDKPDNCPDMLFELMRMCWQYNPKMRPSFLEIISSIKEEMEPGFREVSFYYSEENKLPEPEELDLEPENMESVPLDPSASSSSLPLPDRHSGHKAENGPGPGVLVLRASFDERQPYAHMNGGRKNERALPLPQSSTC
structure (smiles),measurement,setting,value
O=C1CNCC2=C1C(c1ccccc1F)c1c[nH]nc1N2 (racemic),IC50,Focal adhesion kinase 1,> 20 µM
same,IC50,Angiopoietin-1 receptor,> 20 µM
same,IC50,[1],> 20 µM
same,IC50,MAP kinase p38,> 20 µM
same,IC50,HeLa,> 10 µM
